From ChEMBL document CHEMBL4196118, “Discovery of MK-8318, a Potent and Selective CRTh2 Receptor Antagonist for the Treatment of Asthma” (ACS Med Chem Lett, 2018)
The source made the active and inactive calls. No cut-off for these calls is given here.

Key:
[1] = AUC (0 to 6 hrs) in rat at 0.5 mg/kg, iv; type: ADME, organism-based; set-up: time < 6 hr, dose 0.5 mg/kg, route intravenous; conditions: in vivo
[2] = Intrinsic clearance in rat hepatocytes assessed per million cells; type: ADME, cell-based, Hepatocyte; conditions: read-out: CLH
[3] = target: T1, Prostaglandin D2 receptor 2 (Homo sapiens, UniProt Q9Y5Y4)
T1 sequence (Q9Y5Y4 whole entry): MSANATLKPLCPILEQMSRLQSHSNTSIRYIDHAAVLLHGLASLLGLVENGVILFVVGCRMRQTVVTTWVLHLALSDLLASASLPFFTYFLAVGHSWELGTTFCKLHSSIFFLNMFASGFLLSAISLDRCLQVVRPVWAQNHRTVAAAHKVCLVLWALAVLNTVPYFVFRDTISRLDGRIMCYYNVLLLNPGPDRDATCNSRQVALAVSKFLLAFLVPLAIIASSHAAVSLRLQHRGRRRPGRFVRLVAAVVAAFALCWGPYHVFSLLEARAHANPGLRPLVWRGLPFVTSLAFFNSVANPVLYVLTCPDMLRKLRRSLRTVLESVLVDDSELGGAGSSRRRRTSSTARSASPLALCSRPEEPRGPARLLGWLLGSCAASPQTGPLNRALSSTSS

[4] = target: T1, Prostaglandin D2 receptor 2; remark: listed apart in the source
Description: Antagonist activity at human CRTh2 expressed in CHOK1 cells assessed as inhibition of PGD2-induced beta-arrestin recruitment incubated for 30 mins followed by PGD2 stimulation measured after 60 mins by PathHunter based chemiluminescence assay

[5] = target: T1, Prostaglandin D2 receptor 2; assay: biochemical
Description: Displacement of [3H]PGD2 from human CRTh2 expressed in HEK cell membranes after 60 mins by scintillation counting method

[6] = target: T1, Prostaglandin D2 receptor 2; assay: […] activity at human CRTh2 expressed in HEK cells assessed as forskolin-induced intracellular cAMP accumulation by ELISA based chemiluminescence assay; type: functional, cell-based
[7] = AUC (0 to 6 hrs) in rat at 3 mg/kg, iv; type: ADME, organism-based; set-up: time < 6 hr, dose 3 mg/kg, route intravenous; conditions: in vivo
Cytochrome P450 3A4 = Cytochrome P450 3A4 (Homo sapiens, UniProt P08684); assay: Inhibition of CYP3A4 (unknown origin); type: ADME
Cytochrome P450 2C9 = Cytochrome P450 2C9 (Homo sapiens, UniProt P11712); assay: Inhibition of CYP2C9 (unknown origin); type: ADME
Cytochrome P450 2D6 = Cytochrome P450 2D6 (Homo sapiens, UniProt P10635); assay: Inhibition of CYP2D6 (unknown origin); type: ADME
[8] = target: T2, Nuclear receptor subfamily 1 group I member 2 (Homo sapiens, UniProt O75469); assay: Activation of PXR (unknown origin)
T2 sequence (O75469 whole entry): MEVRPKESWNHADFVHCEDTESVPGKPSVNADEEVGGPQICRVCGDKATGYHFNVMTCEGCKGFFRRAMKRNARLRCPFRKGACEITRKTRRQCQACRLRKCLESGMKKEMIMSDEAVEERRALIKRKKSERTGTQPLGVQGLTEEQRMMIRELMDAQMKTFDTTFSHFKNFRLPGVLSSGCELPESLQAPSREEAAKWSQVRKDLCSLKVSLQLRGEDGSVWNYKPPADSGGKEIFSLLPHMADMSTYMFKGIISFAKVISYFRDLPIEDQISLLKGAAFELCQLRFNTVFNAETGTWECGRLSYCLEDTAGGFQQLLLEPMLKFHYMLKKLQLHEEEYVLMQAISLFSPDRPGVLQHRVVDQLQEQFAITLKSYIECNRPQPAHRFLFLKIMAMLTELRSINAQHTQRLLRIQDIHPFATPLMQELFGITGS

[9] = Clearance in rat plasma at 3 mg/kg, iv; type: ADME, organism-based
[10] = Clearance in dog plasma at 1 mg/kg, iv; type: ADME, organism-based, Canis lupus familiaris
[11] = Clearance in monkey plasma at 1 mg/kg, iv; type: ADME, organism-based, Macaca mulatta; conditions: rhesus monkey
[12] = Volume of distribution in rat at 3 mg/kg, iv; type: ADME, organism-based; conditions: in vivo
[13] = Volume of distribution in dog at 1 mg/kg, iv; type: ADME, organism-based, Canis lupus familiaris; conditions: in vivo
[14] = Volume of distribution in monkey at 1 mg/kg, iv; type: ADME, organism-based, Macaca mulatta; conditions: rhesus monkey, in vivo
[15] = Half life in rat at 3 mg/kg, iv; type: ADME, organism-based; conditions: in vivo
[16] = Half life in dog at 1 mg/kg, iv; type: ADME, organism-based, Canis lupus familiaris; conditions: in vivo
[17] = Half life in monkey at 1 mg/kg, iv; type: ADME, organism-based, Macaca mulatta; conditions: rhesus monkey, in vivo
[18] = AUC in rat at 3 mg/kg, iv; type: ADME, organism-based; conditions: in vivo
[19] = AUC in dog at 1 mg/kg, iv; type: ADME, organism-based, Canis lupus familiaris; conditions: in vivo
[20] = AUC in monkey at 1 mg/kg, iv; type: ADME, organism-based, Macaca mulatta; conditions: rhesus monkey, in vivo
[21] = Cmax in rat at 10 mg/kg, po; type: ADME, organism-based; set-up: dose 10 mg/kg, route oral; conditions: in vivo
[22] = Cmax in dog at 2 mg/kg, po; type: ADME, organism-based, Canis lupus familiaris; set-up: dose 2 mg/kg, route oral; conditions: in vivo
[23] = Cmax in rhesus monkey at 10 mg/kg, po; type: ADME, organism-based, Macaca mulatta; set-up: dose 10 mg/kg, route oral; conditions: in vivo
[24] = Tmax in rat at 10 mg/kg, po; type: ADME, organism-based; conditions: in vivo
[25] = Tmax in dog at 2 mg/kg, po; type: ADME, organism-based, Canis lupus familiaris; conditions: in vivo
[26] = Tmax in rhesus monkey at 10 mg/kg, po; type: ADME, organism-based, Macaca mulatta; conditions: in vivo
[27] = AUC in rat at 10 mg/kg, po; type: ADME, organism-based; conditions: in vivo
[28] = AUC in dog at 2 mg/kg, po; type: ADME, organism-based, Canis lupus familiaris; conditions: in vivo
[29] = AUC in rhesus monkey at 10 mg/kg, po; type: ADME, organism-based, Macaca mulatta; conditions: in vivo
[30] = Oral bioavailability in rat at 10 mg/kg; type: ADME, organism-based; conditions: in vivo
[31] = Oral bioavailability in dog at 2 mg/kg; type: ADME, organism-based, Canis lupus familiaris; conditions: in vivo
[32] = Oral bioavailability in rhesus monkey at 10 mg/kg; type: ADME, organism-based, Macaca mulatta; conditions: in vivo
Ovis aries [33] = assay: Anti-asthmatic activity in sheep lung allergen model assessed as inhibition of antigen-induced late airway response at 1 mg/kg administered as 4 hrs iv infusion starting at 1 hr prior to antigen challenge measured 4 to 8 hrs post antigen challenge; type: functional, organism-based
Ovis aries [34] = assay: Anti-asthmatic activity in sheep lung allergen model assessed as inhibition of antigen-induced airway hyper-responsiveness at 1 mg/kg administered as 4 hrs iv infusion starting at 1 hr prior to antigen challenge measured 24 hrs post antigen challenge; type: functional, organism-based
Rattus norvegicus [35] = assay: (§1) Antiinflammatory activity in Brown Norway rat assessed as inhibition of OVA-induced eosinophils levels in BAL cells at 3 mg/kg, po qd for 3 days followed by aerosolized OVA challenge for 30 mins administered 2 hrs post last compound dose on day 3 measured 24 hrs post aerosolized OVA challenge relative to control; type: functional
Rattus norvegicus [36] = assay: as §1, with “neutrophils” for “eosinophils”; type: functional
Rattus norvegicus [37] = assay: as §1, with “total cell” for “eosinophils”; type: functional
Rattus norvegicus [38] = assay: as §1, with “OVA-induced neutrophils” for “OVA-induced eosinophils”, “at 10” for “at 3”; type: functional
Rattus norvegicus [39] = assay: as §1, with “at 10” for “at 3”; type: functional
Rattus norvegicus [40] = assay: as §1, with “OVA-induced total cell” for “OVA-induced eosinophils”, “at 10” for “at 3”; type: functional
Rattus norvegicus [41] = assay: as §1, with “at 30” for “at 3”; type: functional
Rattus norvegicus [42] = assay: as §1, with “OVA-induced neutrophils” for “OVA-induced eosinophils”, “at 30” for “at 3”; type: functional
Rattus norvegicus [43] = assay: as §1, with “OVA-induced total cell” for “OVA-induced eosinophils”, “at 30” for “at 3”; type: functional

Cytochrome P450 2D6, sequence (P10635 whole entry): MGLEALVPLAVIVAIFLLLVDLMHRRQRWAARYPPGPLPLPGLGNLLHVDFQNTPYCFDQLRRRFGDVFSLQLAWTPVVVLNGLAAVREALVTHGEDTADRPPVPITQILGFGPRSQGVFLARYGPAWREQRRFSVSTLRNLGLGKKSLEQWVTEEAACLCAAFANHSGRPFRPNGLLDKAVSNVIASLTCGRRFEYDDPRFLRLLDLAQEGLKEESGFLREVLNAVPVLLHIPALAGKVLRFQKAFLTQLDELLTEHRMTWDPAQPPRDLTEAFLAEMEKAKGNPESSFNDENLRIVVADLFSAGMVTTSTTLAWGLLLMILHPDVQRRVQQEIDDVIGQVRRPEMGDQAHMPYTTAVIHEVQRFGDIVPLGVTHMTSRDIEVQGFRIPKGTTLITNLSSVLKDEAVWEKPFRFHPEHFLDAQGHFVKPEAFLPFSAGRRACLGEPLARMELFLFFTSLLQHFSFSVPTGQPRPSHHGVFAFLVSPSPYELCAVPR
Cytochrome P450 2C9, sequence (P11712 whole entry): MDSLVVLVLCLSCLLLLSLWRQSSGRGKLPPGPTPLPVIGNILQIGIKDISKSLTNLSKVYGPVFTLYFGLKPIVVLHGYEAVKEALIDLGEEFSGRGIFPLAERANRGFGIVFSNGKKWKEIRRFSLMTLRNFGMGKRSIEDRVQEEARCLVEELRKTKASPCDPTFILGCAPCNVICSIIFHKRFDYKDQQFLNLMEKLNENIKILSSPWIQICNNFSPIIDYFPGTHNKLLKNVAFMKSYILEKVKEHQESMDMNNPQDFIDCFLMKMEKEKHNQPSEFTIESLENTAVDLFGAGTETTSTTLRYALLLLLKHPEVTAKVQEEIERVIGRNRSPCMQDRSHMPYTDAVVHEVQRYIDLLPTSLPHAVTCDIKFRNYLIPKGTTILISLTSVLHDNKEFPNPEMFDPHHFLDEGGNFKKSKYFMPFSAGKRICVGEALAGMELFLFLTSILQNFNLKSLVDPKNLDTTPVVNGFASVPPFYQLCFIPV
Cytochrome P450 3A4, sequence (P08684 whole entry): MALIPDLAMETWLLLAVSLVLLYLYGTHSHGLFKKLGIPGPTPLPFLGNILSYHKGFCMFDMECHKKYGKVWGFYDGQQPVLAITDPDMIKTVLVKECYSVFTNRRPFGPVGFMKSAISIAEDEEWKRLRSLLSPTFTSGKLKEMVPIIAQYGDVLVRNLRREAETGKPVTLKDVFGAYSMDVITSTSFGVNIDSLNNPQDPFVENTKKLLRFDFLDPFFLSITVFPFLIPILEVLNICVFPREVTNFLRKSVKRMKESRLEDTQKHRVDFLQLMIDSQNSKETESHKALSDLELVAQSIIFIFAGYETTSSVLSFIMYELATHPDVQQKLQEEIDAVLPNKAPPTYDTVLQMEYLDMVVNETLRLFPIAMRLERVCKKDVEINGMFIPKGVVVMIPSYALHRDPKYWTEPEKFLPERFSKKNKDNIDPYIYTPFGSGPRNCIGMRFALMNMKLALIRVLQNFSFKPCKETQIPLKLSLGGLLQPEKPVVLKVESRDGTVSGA

In the case of `O=C(O)CCC(=O)N(C1CC1)[C@H]1c2ccccc2N(C(=O)c2ccc(F)cc2)[C@H]2CC[C@H]21`, the AUC(0-t) at 6 h [1] is reported as 0.46 µM·h, the hepatocyte CLint [2] is reported as 14 µL/min/1e6 cells and the IC50 [3] is reported as 20 nM. It also gave an IC50 [4] of 12 nM and a Ki [5] of 7.3 nM.

With `O=C(O)CCC(=O)N(C1CC1)[C@H]1c2ccccc2N(C(=O)OCc2ccc(F)cc2)[C@H]2CCC[C@H]21` the AUC(0-t) at 6 h [1] was 0.27 µM·h and the Ki [5] was 12 nM.

`O=C(O)COC(=O)N(C1CC1)[C@H]1c2ccccc2N(C(=O)c2ccc(F)cc2)[C@H]2CC[C@H]21` gave a hepatocyte CLint [2] of 13 µL/min/1e6 cells, an IC50 [3] of 2 nM and an IC50 [4] of 1.4 nM. The Ki [5] was 3.5 nM.

With `CCN(c1nc(C(=O)O)cs1)[C@H]1c2ccccc2N(C(=O)OCc2ccccc2)[C@H]2CCC[C@@H]12` the EC50 [6] was 12 nM, the IC50 [3] was 2920 nM and the Ki [5] was 51 nM.

With `O=C(O)COC(=O)N(C1CC1)[C@H]1c2ccccc2N(C(=O)c2ccc(OC(F)(F)F)cc2)[C@H]2CC[C@H]21` the hepatocyte CLint [2] was 18 µL/min/1e6 cells, the IC50 [3] was 0.9 nM and the IC50 [4] was 1.4 nM. For the same molecule, the Ki [5] was 2.5 nM.

`C[C@@H](OC(=O)N1c2ccccc2[C@H](N(C(=O)CCC(=O)O)C2CC2)[C@@H]2CCC[C@@H]21)c1ccc(F)cc1` gave an AUC(0-t) at 6 h [1] of 0.63 µM·h.

For `O=C(O)CCC(=O)N(C1CC1)[C@H]1c2cc(F)ccc2N(C(=O)c2ccc(OC(F)(F)F)cc2)[C@H]2CCC[C@H]21`, the AUC(0-t) at 6 h [7] was 3.35 µM·h, the “inhibition (INH)” value (Cytochrome P450 3A4) was “Not Active” and the “inhibition (INH)” value (Cytochrome P450 2C9) was “Not Active”. For the same molecule, the “inhibition (INH)” value (Cytochrome P450 2D6) was “Not Active”, the Activity [8] was “Not Active” and the clearance [9] was 29.1 mL/min/kg. The clearance [10] was 9.4 mL/min/kg, the clearance [11] was 16.4 mL/min/kg and the Vd [12] was 5.8 L/kg. It also gave a Vd [13] of 2.4 L/kg, a Vd [14] of 5.8 L/kg and a half-life [15] of 7.5 h. For the same molecule, the half-life [16] was 10.4 h, the half-life [17] was 12.9 h and the AUC [18] was 3.4 µM·h. For the same molecule, the AUC [19] was 3.46 µM·h, the AUC [20] was 1.92 µM·h and the Cmax [21] was 2070 nM. The Cmax [22] was 2470 nM, the Cmax [23] was 5690 nM and the Tmax [24] was 0.58 h. The Tmax [25] was 0.42 h, the Tmax [26] was 0.42 h and the AUC [27] was 6.77 µM·h. It also gave an AUC [28] of 8.51 µM·h, an AUC [29] of 6.76 µM·h and a bioavailability [30] of 61%. The bioavailability [31] was 121%, the bioavailability [32] was 28% and the inhibition (Ovis aries [33]) was “Active”. The inhibition (Ovis aries [34]) was “Active”, the inhibition in vivo at 3 mg/kg (Rattus norvegicus [35]) was 36% and the inhibition in vivo at 3 mg/kg (Rattus norvegicus [36]) was 56%. For the same molecule, the inhibition in vivo at 3 mg/kg (Rattus norvegicus [37]) was 52%, the inhibition in vivo at 10 mg/kg (Rattus norvegicus [38]) was 49% and the inhibition in vivo at 10 mg/kg (Rattus norvegicus [39]) was 65%. For the same molecule, the inhibition in vivo at 10 mg/kg (Rattus norvegicus [40]) was 68%, the inhibition in vivo at 30 mg/kg (Rattus norvegicus [41]) was 58% and the inhibition in vivo at 30 mg/kg (Rattus norvegicus [42]) was 77%. The inhibition in vivo at 30 mg/kg (Rattus norvegicus [43]) was 78%, the IC50 [3] was 8 nM and the IC50 [4] was 3.5 nM. The Ki [5] was 5 nM.

`O=C(O)CCC(=O)N(C1CC1)[C@H]1c2ccc(F)cc2N(C(=O)c2ccc(OC(F)(F)F)cc2)[C@H]2CCC[C@H]21` gave an AUC(0-t) at 6 h [1] of 0.043 µM·h.

`O=C(O)CCC(=O)N(C1CC1)[C@H]1c2cc(F)c(Cl)cc2N(C(=O)c2ccc(OC(F)(F)F)cc2)[C@H]2CCC[C@H]21` gave an AUC(0-t) at 6 h [1] of 1.05 µM·h, an IC50 [3] of 18 nM and an IC50 [4] of 12 nM. For the same molecule, the Ki [5] was 3.4 nM.
